In experiment [1] the target is Gamma-aminobutyric acid receptor subunit alpha-1 (Rattus norvegicus, UniProt P62813).
In experiment [2] the target is T1, Androgen receptor (Homo sapiens, UniProt P10275).
T1 sequence (P10275 whole entry): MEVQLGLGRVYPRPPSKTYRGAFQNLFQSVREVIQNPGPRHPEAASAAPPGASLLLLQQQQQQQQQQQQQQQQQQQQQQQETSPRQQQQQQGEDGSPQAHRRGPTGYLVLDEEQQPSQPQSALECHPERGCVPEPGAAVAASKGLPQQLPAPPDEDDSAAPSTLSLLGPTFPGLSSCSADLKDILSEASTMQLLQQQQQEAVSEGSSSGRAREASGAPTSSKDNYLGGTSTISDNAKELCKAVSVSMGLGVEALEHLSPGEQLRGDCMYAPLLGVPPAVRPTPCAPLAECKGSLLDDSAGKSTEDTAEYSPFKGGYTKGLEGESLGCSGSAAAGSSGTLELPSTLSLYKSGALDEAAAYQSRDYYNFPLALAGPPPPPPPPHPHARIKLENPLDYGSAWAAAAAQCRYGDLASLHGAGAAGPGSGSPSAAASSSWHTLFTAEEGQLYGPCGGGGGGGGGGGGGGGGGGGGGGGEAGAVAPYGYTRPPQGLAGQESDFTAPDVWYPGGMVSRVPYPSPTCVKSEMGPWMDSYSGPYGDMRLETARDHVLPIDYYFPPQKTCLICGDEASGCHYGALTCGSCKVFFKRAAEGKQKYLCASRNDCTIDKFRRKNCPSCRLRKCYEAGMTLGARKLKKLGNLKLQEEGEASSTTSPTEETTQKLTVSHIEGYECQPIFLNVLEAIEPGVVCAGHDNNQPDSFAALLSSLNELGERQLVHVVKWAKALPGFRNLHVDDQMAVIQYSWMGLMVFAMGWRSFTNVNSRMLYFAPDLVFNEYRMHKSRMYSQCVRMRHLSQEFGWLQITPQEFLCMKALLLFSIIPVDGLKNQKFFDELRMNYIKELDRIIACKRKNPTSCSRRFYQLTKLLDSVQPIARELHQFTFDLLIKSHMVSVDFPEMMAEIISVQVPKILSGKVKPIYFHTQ

The target of experiment [3] is T2, Glucocorticoid receptor (Homo sapiens, UniProt P04150).
T2 sequence (P04150 whole entry): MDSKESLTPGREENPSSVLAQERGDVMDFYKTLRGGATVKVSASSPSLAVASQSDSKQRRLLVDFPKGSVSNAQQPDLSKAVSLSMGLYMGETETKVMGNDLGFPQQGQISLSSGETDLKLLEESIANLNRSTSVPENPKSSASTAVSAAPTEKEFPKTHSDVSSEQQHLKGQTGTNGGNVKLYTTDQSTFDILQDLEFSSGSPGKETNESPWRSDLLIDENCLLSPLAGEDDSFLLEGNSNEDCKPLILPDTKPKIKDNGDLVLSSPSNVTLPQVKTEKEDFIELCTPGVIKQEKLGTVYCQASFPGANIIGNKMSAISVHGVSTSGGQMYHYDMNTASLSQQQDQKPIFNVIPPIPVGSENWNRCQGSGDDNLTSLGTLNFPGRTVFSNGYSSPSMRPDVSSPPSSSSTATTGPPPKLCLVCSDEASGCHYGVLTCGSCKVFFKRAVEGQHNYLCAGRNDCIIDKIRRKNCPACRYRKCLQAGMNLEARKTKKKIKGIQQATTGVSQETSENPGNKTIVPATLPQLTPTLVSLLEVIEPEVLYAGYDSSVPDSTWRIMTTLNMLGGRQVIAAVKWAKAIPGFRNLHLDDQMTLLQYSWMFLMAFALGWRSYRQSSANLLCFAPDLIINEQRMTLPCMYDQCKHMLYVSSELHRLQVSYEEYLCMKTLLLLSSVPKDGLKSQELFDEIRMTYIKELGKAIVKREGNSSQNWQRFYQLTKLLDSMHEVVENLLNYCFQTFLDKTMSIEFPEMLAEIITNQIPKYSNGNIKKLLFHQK

The target in experiment [4] is T3, Gastrin/cholecystokinin type B receptor (Homo sapiens, UniProt P32239).
T3 sequence (P32239 whole entry): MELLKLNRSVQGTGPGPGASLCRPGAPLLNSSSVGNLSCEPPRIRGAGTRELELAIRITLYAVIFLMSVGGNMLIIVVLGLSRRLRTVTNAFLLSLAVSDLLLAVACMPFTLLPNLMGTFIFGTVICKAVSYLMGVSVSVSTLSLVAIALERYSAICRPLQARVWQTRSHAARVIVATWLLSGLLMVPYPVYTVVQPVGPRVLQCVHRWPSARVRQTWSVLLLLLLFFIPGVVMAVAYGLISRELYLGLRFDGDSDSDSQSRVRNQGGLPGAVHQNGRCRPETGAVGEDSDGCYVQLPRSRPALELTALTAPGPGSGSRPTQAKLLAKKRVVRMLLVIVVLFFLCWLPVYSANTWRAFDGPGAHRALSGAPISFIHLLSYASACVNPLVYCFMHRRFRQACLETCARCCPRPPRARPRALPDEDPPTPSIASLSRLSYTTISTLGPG

Experiment [5] has as its target cGMP-inhibited 3',5'-cyclic phosphodiesterase 3A (Homo sapiens, UniProt Q14432). The class given is functional.
The target in experiment [6] is Sodium-dependent noradrenaline transporter (Homo sapiens, UniProt P23975).
Chain of Sodium-dependent noradrenaline transporter (P23975 whole entry): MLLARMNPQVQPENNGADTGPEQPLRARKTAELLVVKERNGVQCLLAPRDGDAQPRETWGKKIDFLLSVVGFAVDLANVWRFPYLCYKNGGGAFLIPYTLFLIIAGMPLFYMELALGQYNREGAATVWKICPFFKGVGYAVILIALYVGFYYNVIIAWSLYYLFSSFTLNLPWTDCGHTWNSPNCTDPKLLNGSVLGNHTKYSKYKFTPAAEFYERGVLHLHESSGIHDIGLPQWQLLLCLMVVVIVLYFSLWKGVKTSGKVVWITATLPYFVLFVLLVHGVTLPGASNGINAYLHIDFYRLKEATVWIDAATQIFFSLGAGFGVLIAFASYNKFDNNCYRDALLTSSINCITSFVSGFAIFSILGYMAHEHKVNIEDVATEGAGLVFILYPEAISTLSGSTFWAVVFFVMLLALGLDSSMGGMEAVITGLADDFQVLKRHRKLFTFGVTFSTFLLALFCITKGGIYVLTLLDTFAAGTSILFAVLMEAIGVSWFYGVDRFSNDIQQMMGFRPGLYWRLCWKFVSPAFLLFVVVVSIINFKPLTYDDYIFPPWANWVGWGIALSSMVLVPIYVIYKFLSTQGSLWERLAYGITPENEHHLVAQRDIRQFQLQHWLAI
Experiment [7] has as its target Cannabinoid receptor 1 (Homo sapiens, UniProt P21554).
For experiment [8], the target named is Melanocortin receptor 3 (Homo sapiens, UniProt P41968).
Chain of Melanocortin receptor 3 (P41968 whole entry): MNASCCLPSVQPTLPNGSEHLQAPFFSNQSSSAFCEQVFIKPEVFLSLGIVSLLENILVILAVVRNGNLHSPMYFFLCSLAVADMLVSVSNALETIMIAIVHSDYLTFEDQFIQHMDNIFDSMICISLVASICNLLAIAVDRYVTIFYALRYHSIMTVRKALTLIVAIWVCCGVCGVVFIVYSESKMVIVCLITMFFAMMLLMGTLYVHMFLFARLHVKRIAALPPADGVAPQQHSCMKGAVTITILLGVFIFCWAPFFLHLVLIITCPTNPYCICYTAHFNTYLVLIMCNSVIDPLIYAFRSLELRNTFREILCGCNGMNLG
Experiment [9] concerns the target T4, Alpha-2A adrenergic receptor (Homo sapiens, UniProt P08913).
T4 sequence (P08913 whole entry): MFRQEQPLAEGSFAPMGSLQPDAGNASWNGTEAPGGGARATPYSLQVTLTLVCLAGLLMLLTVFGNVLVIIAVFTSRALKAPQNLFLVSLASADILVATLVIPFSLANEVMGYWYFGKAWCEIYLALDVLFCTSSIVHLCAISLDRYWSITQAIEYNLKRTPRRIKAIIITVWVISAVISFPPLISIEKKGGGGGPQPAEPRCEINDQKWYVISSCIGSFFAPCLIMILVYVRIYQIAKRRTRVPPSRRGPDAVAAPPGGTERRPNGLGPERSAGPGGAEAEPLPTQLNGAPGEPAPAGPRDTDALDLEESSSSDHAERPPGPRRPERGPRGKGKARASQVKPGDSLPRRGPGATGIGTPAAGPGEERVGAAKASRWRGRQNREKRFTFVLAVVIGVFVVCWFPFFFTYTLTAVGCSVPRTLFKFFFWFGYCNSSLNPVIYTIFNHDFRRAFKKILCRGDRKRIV
In kind it is functional, cell-based.

This note sets out measurements from ChEMBL document CHEMBL5291721, “A preclinical secondary pharmacology resource illuminates target-adverse drug reaction associations of marketed drugs” (Nat Commun, 2023).
Also: assay procedure not described here.

Chain of Gamma-aminobutyric acid receptor subunit alpha-1 (P62813 whole entry): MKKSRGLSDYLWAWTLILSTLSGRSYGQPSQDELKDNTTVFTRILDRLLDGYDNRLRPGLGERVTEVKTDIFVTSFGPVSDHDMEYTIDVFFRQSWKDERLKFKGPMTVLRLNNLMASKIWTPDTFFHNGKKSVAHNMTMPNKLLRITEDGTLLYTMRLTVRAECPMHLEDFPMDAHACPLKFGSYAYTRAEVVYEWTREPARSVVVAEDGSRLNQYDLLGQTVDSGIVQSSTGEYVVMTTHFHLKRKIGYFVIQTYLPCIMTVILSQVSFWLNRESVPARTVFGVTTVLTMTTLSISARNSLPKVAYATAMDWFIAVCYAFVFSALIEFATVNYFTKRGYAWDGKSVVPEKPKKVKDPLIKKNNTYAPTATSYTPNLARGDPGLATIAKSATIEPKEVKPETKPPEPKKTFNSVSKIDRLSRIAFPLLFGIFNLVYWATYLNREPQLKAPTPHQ
Chain of cGMP-inhibited 3',5'-cyclic phosphodiesterase 3A (Q14432 whole entry): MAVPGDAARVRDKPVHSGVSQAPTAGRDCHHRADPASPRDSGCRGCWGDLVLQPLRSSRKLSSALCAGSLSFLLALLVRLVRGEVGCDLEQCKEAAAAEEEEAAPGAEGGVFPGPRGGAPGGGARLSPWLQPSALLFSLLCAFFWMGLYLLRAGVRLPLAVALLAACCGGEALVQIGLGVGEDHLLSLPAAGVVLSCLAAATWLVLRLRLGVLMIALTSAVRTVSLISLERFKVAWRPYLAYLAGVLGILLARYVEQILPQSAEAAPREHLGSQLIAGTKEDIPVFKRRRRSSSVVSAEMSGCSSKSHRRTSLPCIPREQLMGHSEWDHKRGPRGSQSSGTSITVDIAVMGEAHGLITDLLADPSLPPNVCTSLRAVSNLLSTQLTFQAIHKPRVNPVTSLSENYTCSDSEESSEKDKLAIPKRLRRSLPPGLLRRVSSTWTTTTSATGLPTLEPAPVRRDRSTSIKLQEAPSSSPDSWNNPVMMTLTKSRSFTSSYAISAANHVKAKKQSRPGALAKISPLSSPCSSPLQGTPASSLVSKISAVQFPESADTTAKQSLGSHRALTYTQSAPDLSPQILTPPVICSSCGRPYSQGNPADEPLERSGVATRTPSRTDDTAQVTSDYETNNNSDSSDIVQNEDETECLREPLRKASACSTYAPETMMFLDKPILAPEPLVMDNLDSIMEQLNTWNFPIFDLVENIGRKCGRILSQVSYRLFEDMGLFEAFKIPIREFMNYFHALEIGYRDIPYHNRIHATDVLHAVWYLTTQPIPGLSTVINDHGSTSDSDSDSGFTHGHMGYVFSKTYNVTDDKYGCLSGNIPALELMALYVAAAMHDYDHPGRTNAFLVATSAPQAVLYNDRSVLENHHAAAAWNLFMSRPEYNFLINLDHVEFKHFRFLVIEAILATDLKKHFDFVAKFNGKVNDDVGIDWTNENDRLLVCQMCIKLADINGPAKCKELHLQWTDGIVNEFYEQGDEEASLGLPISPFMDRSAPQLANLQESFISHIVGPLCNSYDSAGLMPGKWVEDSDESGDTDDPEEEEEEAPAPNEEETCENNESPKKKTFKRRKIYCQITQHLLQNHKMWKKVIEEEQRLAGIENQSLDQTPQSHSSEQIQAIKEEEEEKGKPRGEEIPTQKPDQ
Chain of Cannabinoid receptor 1 (P21554 whole entry): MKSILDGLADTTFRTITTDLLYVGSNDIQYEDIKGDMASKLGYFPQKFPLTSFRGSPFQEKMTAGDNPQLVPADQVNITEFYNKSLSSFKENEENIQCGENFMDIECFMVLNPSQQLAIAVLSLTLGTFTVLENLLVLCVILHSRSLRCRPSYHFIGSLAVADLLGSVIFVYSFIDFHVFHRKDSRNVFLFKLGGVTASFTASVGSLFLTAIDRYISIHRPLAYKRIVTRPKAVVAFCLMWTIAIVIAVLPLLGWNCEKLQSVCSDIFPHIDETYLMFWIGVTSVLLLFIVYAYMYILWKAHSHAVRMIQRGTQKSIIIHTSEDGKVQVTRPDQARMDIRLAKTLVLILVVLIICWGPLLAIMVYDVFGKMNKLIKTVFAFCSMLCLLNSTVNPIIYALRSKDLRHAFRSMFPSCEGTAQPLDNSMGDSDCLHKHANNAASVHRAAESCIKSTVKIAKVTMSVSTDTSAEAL

Usually AC50 stands for the concentration at which the activity in the assay is half-maximal. A high value points to activity only at high concentration. For the compound `C[C@H](N[C@@H](CCc1ccccc1)C(=O)O)C(=O)N1Cc2ccccc2C[C@H]1C(=O)O`, the AC50 in experiment [1] and in [2] was > 30 µM each time.
For `O=C(O)[C@@H]1C[C@@H](O)CN1`, the AC50 in experiment [1] and in experiment [2] was > 30 µM each time.
With `CC1(C)S[C@@H]2[C@H](/N=C/N3CCCCCC3)C(=O)N2[C@H]1C(=O)O` [AMDINOCILLIN], the half-maximal activity concentration (AC50) in experiment [1] is > 30 µM.
As to `CC(=O)[C@]1(N)Cc2c(O)c3c(c(O)c2[C@@H](O[C@H]2C[C@H](O)[C@H](O)CO2)C1)C(=O)c1ccccc1C3=O` [AMRUBICIN], the half-maximal activity concentration (AC50) in experiment [1] and in experiment [2] was > 30 µM in each case.
Consider `NC(=O)[C@@H]1CC[C@@H]2CN1C(=O)N2OS(=O)(=O)O` [AVIBACTAM], for which the AC50 in experiment [2] is > 30 µM.
As to `CC(=O)OC[C@H]1O[C@@H](n2ncc(=O)[nH]c2=O)[C@H](OC(C)=O)[C@@H]1OC(C)=O` [AZARIBINE], the AC50 in experiment [1] and in [2] was > 30 µM in each case.
`CC(O)(CS(=O)(=O)c1ccc(F)cc1)C(=O)Nc1ccc(C#N)c(C(F)(F)F)c1` (centres undefined) [BICALUTAMIDE]: the AC50 in experiment [1] was > 30 µM; in [3], > 30 µM; in experiment [4] it was > 30 µM; in [5], > 10 µM; in experiment [6], > 30 µM; in experiment [7], > 10 µM. In addition, the AC50 is > 30 µM in experiment [8] and > 10 µM in experiment [9].
Take `CC(C)(C)NC(=O)N[C@H](C(=O)N1C[C@H]2[C@@H]([C@H]1C(=O)NC(CC1CCC1)C(=O)C(N)=O)C2(C)C)C(C)(C)C` (some centres undefined) [BOCEPREVIR]: the half-maximal activity concentration (AC50) in experiment [1] and in [2] was > 30 µM each time.
As to `NC[C@H]1CC[C@H](C(=O)Oc2ccc(CCC(=O)O)cc2)CC1` [CETRAXATE], the AC50 in experiment [1], in experiment [5] and in experiment [9] was > 30 µM in each case.
As to `Cc1ncc2c(c1O)COC2c1ccc(Cl)cc1` (centres undefined) [CICLETANINE], the AC50 in [2] was > 30 µM.
On to `Cc1cn([C@H]2O[C@@H](CO)[C@H](O)[C@H]2F)c(=O)[nH]c1=O` [CLEVUDINE], for which the half-maximal activity concentration (AC50) in experiment [1] was > 30 µM.
Take `CC(=O)O[C@]1(C(C)=O)CC[C@H]2[C@@H]3C=C(Cl)C4=CC(=O)[C@@H]5C[C@@H]5[C@]4(C)[C@H]3CC[C@@]21C` [CYPROTERONE ACETATE]: the half-maximal activity concentration (AC50) was > 30 µM in [1]; > 30 µM in experiment [4]; > 30 µM in [5]; > 30 µM in experiment [6]; > 10 µM in experiment [7]; > 30 µM in experiment [8].
In the case of `CC(=O)[C@H]1CC[C@H]2[C@@H]3C=CC4=CC(=O)CC[C@@]4(C)[C@@H]3CC[C@]12C` [DYDROGESTERONE], the AC50 in [1] is > 30 µM.
Take `CC(=O)O[C@H]1Cc2ccccc2N(C(N)=O)c2ccccc21` [ESLICARBAZEPINE ACETATE]: in experiment [2], the concentration at half-maximal activity (AC50) was > 30 µM.
For the compound `CC(O)(P(=O)(O)O)P(=O)(O)O` [ETIDRONIC ACID], in [1], the AC50 is > 30 µM.
With `Cc1ccc(S(=O)(=O)NC(=O)NC2CCCCC2)cc1` [GLYCYCLAMIDE], the AC50 in [1] is > 30 µM.
Regarding `CN1CCCN(C(c2ccccc2)c2ccc(Cl)cc2)CC1` (centres undefined) [HOMOCHLORCYCLIZINE], the AC50 in experiment [1] and in [2] was > 30 µM in each case.
For `CC(=O)OCC(=O)[C@@]1(O)CC[C@H]2[C@@H]3CCC4=CC(=O)CC[C@]4(C)[C@H]3[C@@H](O)C[C@@]21C` [HYDROCORTISONE ACETATE], the AC50 in experiment [1] is > 30 µM.
The same measure, in the same setting: the same measure for `CC(COc1ccccc1)NC(C)C(O)c1ccc(O)cc1` (centres undefined) [ISOXSUPRINE]: > 30 µM.
As to `O=C(CCC/C=C\C[C@@H]1[C@@H](CC[C@@H](O)CCc2ccccc2)[C@H](O)C[C@@H]1O)OCCCCO[N+](=O)[O-]` [LATANOPROSTENE BUNOD], the AC50 in experiment [1] and in experiment [2] was > 30 µM each time.
In the case of `Cc1oc(=O)oc1COC(=O)[C@@H]1N2C(=O)[C@@H](NC(=O)[C@H](N)c3ccccc3)[C@H]2SC1(C)C` [LENAMPICILLIN], the AC50 in experiment [1] and in experiment [2] was > 30 µM in each case.
Consider `COc1ccc(OC)c(C(O)C(C)N)c1` (centres undefined) [METHOXAMINE], for which the AC50 in experiment [2] is > 30 µM.
Same read-out and setting: the result for `CC1(CCN2CCCCC2)C(=O)CCc2ccccc21` (centres undefined) [NEPINALONE] reads > 30 µM.
As to `COC(=O)C[C@](O)(CCCC(C)(C)O)C(=O)O[C@@H]1C(OC)=C[C@]23CCCN2CCc2cc4c(cc2[C@H]13)OCO4` [OMACETAXINE MEPESUCCINATE], the AC50 in [1] and in [2] was > 30 µM in each case.
As to `COc1cccc(C(=O)CCN[C@@H](C)[C@H](O)c2ccccc2)c1` [OXYFEDRINE], in experiment [2], the concentration at half-maximal activity (AC50) is > 30 µM.
As to `C[C@@H]1C[C@H]2[C@@H]3C[C@H](F)C4=CC(=O)C=C[C@]4(C)[C@H]3[C@@H](O)C[C@]2(C)[C@@]1(O)C(=O)CO` [PARAMETHASONE], the half-maximal activity concentration (AC50) in [1] is > 30 µM; in experiment [2], 3.48 µM.
Regarding `CCC[C@H](N[C@@H](C)C(=O)N1[C@H](C(=O)O)C[C@@H]2CCCC[C@@H]21)C(=O)OCC` [PERINDOPRIL], the half-maximal activity concentration (AC50) in [1] is > 30 µM.
On the same count and under the same terms, the result for `NNCCc1ccccc1` [PHENELZINE] reads > 30 µM; that for `N[C@@H](Cc1ccccc1)C(=O)O` [PHENYLALANINE], > 30 µM.
As for `CCCn1cnc2c1c(=O)n(CCCCC(C)=O)c(=O)n2C` [PROPENTOFYLLINE], the AC50 in [1] and in [2] was > 30 µM throughout.
Compound `Clc1ccc(C(Cn2ccnc2)OCc2csc3c(Cl)cccc23)c(Cl)c1` (centres undefined) [SERTACONAZOLE] registered an AC50 in experiment [2] of 0.0201 µM.
On the same count and under the same terms, the result for `CC(OCCN1CCCCCC1)(c1ccccc1)c1ccc(Cl)cc1` (centres undefined) [SETASTINE] reads > 30 µM; that for `c1ccc2c(SC3=NCCN3)c[nH]c2c1` [TINAZOLINE], > 30 µM.
For the compound `COc1ccc2c(C(=S)N(C)CC(=O)O)cccc2c1C(F)(F)F` [TOLRESTAT], the AC50 in [1] is > 30 µM.
